Patent US6433197B1, “Substituted oxygen alicyclic compounds, including methods for synthesis thereof” (Millennium Pharmaceuticals, Inc., priority 1998, dated 2002)

System: Leukotriene B4
Assay: Human whole blood assay, Leukotriene B4 inhibition
Assay type: cell-based
Settings: heparinized human whole blood; pre-incubated 15 minutes at 37° C.; stimulated with 50 μM calcium ionphor for 30 minutes at 37° C.; EIA; read-out: IC50 (Leukotriene B4 inhibition, LTB4 content of plasma)
Method: The following compound of the invention was tested for Leukotriene B4 inhibition in the human whole blood assay detailed below. [drawing 40]
Heparinized human whole blood was pre-incubated with selected concentrations of the test compound for 15 minutes at 37° C. and stimulated with 50 μM calcium ionphor for 30 minutes at 37° C. The reaction was stopped by placing samples on ice and cold centrifugation at 4° C. for 10 minutes at 1100×g. Test sample plasma was diluted in buffer and assayed for LTB4 content. Test compound activity was determined as per Cayman […] EIA and evaluated as IC50 [nM].

- IC50: 148 nM
Structure (SMILES): NC(=O)N(O)CC#CC1CC[C@@H](Cc2ccc(F)cc2)O1 (stereo partly shown)
